Measurements published in US10508077B2 (FORMA Therapeutics, Inc., priority 2015, dated 2019).

These compounds were tested against T1, Full length human recombinant HDAC8 protein (Homo sapiens, UniProt Q9BY41) (assay: In vitro histone deacetylase assay: enzymatic HDAC8 assay, electrophoretic mobility shift). Conditions: substrate RHKK(Ac)-NH2, 1 nM enzyme, compounds listed under IC50 range headings.
T1 construct: Full length human recombinant HDAC8 protein was expressed in baculoviral system; made in house
T1 sequence (Q9BY41 1-377): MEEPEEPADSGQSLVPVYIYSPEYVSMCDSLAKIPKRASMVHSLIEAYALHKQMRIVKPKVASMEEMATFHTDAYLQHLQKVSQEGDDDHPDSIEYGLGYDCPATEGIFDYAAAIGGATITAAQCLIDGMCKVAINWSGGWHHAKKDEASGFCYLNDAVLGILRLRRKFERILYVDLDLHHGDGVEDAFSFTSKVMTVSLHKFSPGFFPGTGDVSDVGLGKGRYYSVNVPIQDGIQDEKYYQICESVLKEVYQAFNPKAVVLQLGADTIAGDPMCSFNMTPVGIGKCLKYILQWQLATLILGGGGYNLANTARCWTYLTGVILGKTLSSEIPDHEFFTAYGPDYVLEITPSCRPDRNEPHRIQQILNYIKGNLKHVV
Format: biochemical
Protocol: The enzymatic HDAC8 assay was performed using electrophoretic mobility shift assay. Full length human recombinant HDAC8 protein was expressed in baculoviral system and purified by affinity chromatography. The enzymatic reactions were assembled in 384 well plates in a total volume of 25 μL in a reaction buffer composing: 100 mM HEPES, pH7.5, 25 mM KC, 0.1% bovine serum albumin, 0.01% Triton X-100, 1% DMSO (from compounds) 2 μM of the fluorescently labeled peptide substrate and enzyme. The enzyme was added at a final concentration of 1 nM. The peptide substrate RHKK(Ac)-NH2 was used. The compounds were tested at 12 concentrations spaced by 3× dilution intervals. Negative control samples (0%-inhibition in the absence of inhibitor) and positive control samples (100%-inhibition) were assembled in replicates of four in each assay plate. The reactions were incubated at 25° C. and quenched by the addition of 45 μL of termination buffer (100 mM HEPES, pH 7.5, 0.01% Triton X-100, 0.05% SDS).
The terminated assay plates were analyzed on LabChip® 3000 microfluidic electrophoresis instrument (Perkin Elmer/Caliper Life Sciences). The fluorescence intensity of the electrophoretically separated de-acetylated product and substrate peptide was measured. Activity in each sample was determined as the product to sum ratio (PSR): P/(S+P), where P is the peak height of the product peptide and S is the peak height of the substrate peptide. Percent inhibition (Pinh) is determined using the following equation: Pinh=(PSR0%−PSRinh)/(PSR0%−PSR100%)*100, where PSRinh is the product sum ratio in the presence of inhibitor, PSR0% is the average product sum ration in the absence of inhibitor and PSR 100% is the average product sum ratio in 100%-inhibition control samples. The IC50 values of inhibitors were determined by fitting the %-inhibition curves with 4 parameter dose-response model using XLfit 4 software. Ranges of IC50 values for compounds of the invention are disclosed in Table 26.

SMILES	IC50
O=C(/C=C/c1ccccc1C(=O)NCC1CCCCC1)NO [II-4, (E)-N-(cyclohexylmethyl)-2-(3-(hydroxyamino)-3-oxoprop-1-en-1-yl)benzamide]	1000 to 10000 nM
CN1CC(C(=O)NC2CCN(c3ccccc3/C=C/C(=O)NO)CC2)C1 [Example I-12, (E)-N-(1-(2-(3-(hydroxyamino)-3-oxoprop-1-en-1-yl)phenyl)piperidin-4-yl)-1-methylazetidine-3-carboxamide]	1000 to 10000 nM
O=C(/C=C/c1ccccc1N1CCC(NC(=O)CC23CCCN2CCC3)CC1)NO [Example I-146]	< 1000 nM
O=C(/C=C/c1ccccc1N1CCN(S(=O)(=O)Cc2ccc(F)cc2)CC1)NO [Example I-251, (E)-3-(2-(4-((4-fluorobenzyl)sulfonyl)pi-perazin-1-yl)phenyl)-N-hydroxyacrylamide]	< 1000 nM
Cc1oc(-c2ccccc2)cc1C(=O)Nc1ccccc1/C=C/C(=O)NO [Example I-271, (E)-N-(2-(3-(hydroxyamino)-3-oxoprop-1-en-1-yl)phenyl)-2-methyl-5-phenylfuran-3-carboxamide]	< 1000 nM
O=C(/C=C/c1ccccc1N1CCC(NC(=O)c2ccc(-n3cccc3)nc2)CC1)NO [Example I-160]	< 1000 nM
CN(C)Cc1cccc(CNC2CCN(c3ccccc3/C=C/C(=O)NO)CC2)c1 [Example I-18, (E)-3-(2-(4-((3-((dimethylamino)methyl)benzyl)amino)piperidin-1-yl)phenyl)-N-hydroxyacrylamide]	1000 to 10000 nM
CC(C)c1ccc(CNc2ccccc2/C=C/C(=O)NO)nc1 [Example I-87, (E)-N-hydroxy-3-(2-(((5-isopropylpyridin-2-yl)methyl)amino)phenyl)acrylamide]	< 1000 nM
O=C(/C=C/c1ccccc1NCc1ccc(-c2ccccc2)c(C(F)(F)F)c1)NO [Example I-120, (E)-N-hydroxy-3-(2-(((2-(trifluoromethyl)-[1,1′-biphenyl]-4-yl)methyl)amino)phenyl)acrylamide]	< 1000 nM
CCS(=O)(=O)NC1CCN(c2ccccc2/C=C/C(=O)NO)CC1 [Example I-227, (E)-3-(2-(4-(ethylsulfonamido)piperidin-1-yl)phenyl)-N-hydroxyacrylamide]	< 1000 nM
CS(=O)(=O)CCCC(=O)NC1CCN(c2ccccc2/C=C/C(=O)NO)CC1 [Example I-136, (E)-N-(1-(2-(3-(hydroxyamino)-3-oxoprop-1-en-1-yl)phenyl)piperidin-4-yl)-4-(methylsulfonyl)butan-amide]	< 1000 nM
O=C(/C=C/c1ccccc1N1CCN(C(=O)c2ccc(C(F)(F)F)cc2)CC1=O)NO [Example I-532, (E)-N-hydroxy-3-(2-(2-oxo-4-(4-(trifluoromethyl)benzoyl)piperazin-1-yl)phenyl)acrylamide]	< 1000 nM
O=C(/C=C/c1ccccc1N1CCC2(CCNCC2)CC1)NO [Example I-52, (E)-3-(2-(3,9-diazaspiro[5.5]undecan-3-yl)phenyl)-N-hydroxyacrylamide 2,2,2-trifluoroacetate]	< 1000 nM
O=C(/C=C/c1ccccc1N1CCN(C(=O)Cc2ccc(Cl)cc2)CC1)NO [Example I-210, (E)-3-(2-(4-(2-(4-chlorophenyl)acetyl)piper-azin-1-yl)phenyl)-N-hydroxyacrylamide]	< 1000 nM
O=C(/C=C/c1ccccc1N1CCCCC1)NO [Example I-57, (E)-N-hydroxy-3-(2-(piperidin-1-yl)phenyl)acrylamide]	< 1000 nM
O=C(/C=C/c1ccccc1N1CCC(NC(=O)CSc2ccccc2)CC1)NO [Example I-152, (E)-N-hydroxy-3-(2-(4-(2-(phenylthio)acetamido)piperidin-1-yl)phenyl)acrylamide]	< 1000 nM

SMILES	IC50
CN(Cc1cccc(C(F)(F)F)c1)c1ccccc1/C=C/C(=O)NO [Example I-119, (E)-N-hydroxy-3-(2-(methyl(3-(trifluoromethyl)benzyl)amino)phenyl)acrylamide]	< 1000 nM
O=C(/C=C/c1ccccc1N1CCN(Cc2ccc(C(F)(F)F)nc2)CC1)NO [Example I-165, (E)-N-hydroxy-3-(2-(4-((6-(trifluoromethyl)pyridin-3-yl)methyl)piperazin-1-yl)phenyl)acrylamide]	< 1000 nM
O=C(/C=C/c1ccccc1N1C[C@@H]2C[C@H]1CN2C(=O)C1(c2ccc(Cl)cc2)CC1)NO [Example I-329, (E)-3-(2-((1S,4S)-5-(1-(4-chlorophenyl)cyclopropane-1-carbonyl)-2,5-diazabicyclo[2.2.1]heptan-2-yl)phenyl)-N-hydroxyacrylamide]	< 1000 nM
O=C(/C=C/c1ccccc1N1CCN(CCc2ccc(Cl)cc2)CC1)NO [Example I-299, (E)-3-(2-(4-(4-chlorophenethyl)pipera-zin-1-yl)phenyl)-N-hydroxyacrylamide]	< 1000 nM
O=C(/C=C/c1cccnc1NC(=O)c1cccc(C(F)(F)F)c1)NO [Example I-122]	< 1000 nM
O=C(/C=C/c1ccccc1N1CCC(NS(=O)(=O)c2cccc3cnccc23)CC1)NO [Example I-232, (E)-N-hydroxy-3-(2-(4-(isoquinoline-5-sulfonamido)piperidin-1-yl)phenyl)acrylamide]	< 1000 nM
O=C(/C=C/c1ccccc1N1CCC(NS(=O)(=O)c2ccc(CNC(=O)c3ccccc3)s2)CC1)NO [Example I-240, (E)-N-((5-(N-(1-(2-(3-(hydroxyamino)-3-oxoprop-1-en-1-yl)phenyl)piperidin-4-yl)sulfamoyl)thiophen-2-yl)methyl)benzamide]	< 1000 nM
O=C(/C=C/c1ccccc1C(=O)Nc1ccccc1)NO [II-2, (E)-2-(3-(hydroxyamino)-3-oxoprop-1-en-1-yl)-N-phenylbenzamide]	1000 to 10000 nM
O=C(/C=C/c1ccccc1C(=O)N1CCCCC1)NO [II-16, (E)-N-hydroxy-3-(2-(piperidine-1-carbonyl)phenyl)acrylamide]	< 1000 nM
O=C(/C=C/c1ccccc1N1CCN(S(=O)(=O)C2CCCC2)CC1)NO [Example I-250]	< 1000 nM
O=C(/C=C/c1ccccc1NC(=O)c1sc2ccccc2c1Cl)NO [Example I-269, (E)-3-chloro-N-(2-(3-(hydroxyamino)-3-oxoprop-1-en-1-yl)phenyl)benzo[b]thiophene-2-carboxamide]	< 1000 nM
O=C(/C=C/c1ncccc1NC(=O)c1cccc(C(F)(F)F)c1)NO [Example I-124, (E)-N-(2-(3-(hydroxyamino)-3-oxoprop-1-en-1-yl)pyridin-3-yl)-3-(trifluoromethyl)benzamide]	< 1000 nM
NC1CC2(CN(c3ccccc3/C=C/C(=O)NO)C2)S(=O)(=O)C1 (stereo not shown) [Example I-117, (E)-3-(2-(7-amino-5,5-dioxido-5-thia-2-azaspiro[3.4]octan-2-yl)phenyl)-N-hydroxyacrylamide 2,2,2-trifluoroacetate]	< 1000 nM
O=C(/C=C/c1ccccc1N1CCC(NS(=O)(=O)c2ccc3c(c2)NC(=O)CO3)CC1)NO [Example I-236, (E)-N-hydroxy-3-(2-(4-((3-oxo-3,4-dihydro-2H-benzo[b][1,4]oxazine)-6-sulfonamido)piperidin-1-yl)phenyl)acrylamide]	< 1000 nM
O=C(/C=C/c1ccccc1NC(=O)c1cc2ccccn2n1)NO [Example I-82, (E)-N-(2-(3-(hydroxyamino)-3-oxoprop-1-en-1-yl)phenyl)pyrazolo[1,5-a]pyridine-2-carboxamide]	< 1000 nM
